Assay results from PubChem BioAssay AID1919006 (Molecular Pharmacology Branch, DTP, NCI, 2023).
Where “and” joins values, the source holds several entries; their conditions need not be identical. Equal entries are not always repeated.

System: 885512-296-R-J2-PDC complex spheroid growth, % test/control
Assay: Anticancer human tumor 885512-296-R-J2-PDC patient-derived breast carcinoma cell line growth inhibition [AhR]
Conditions: for viability, T/C: stronger effect = lower value
How it was run: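 Complex tumor spheroids co-cultured with HUVEC and human MSC stroma; AhR antagonists tested in combination with standard-of-care and investigational agents. Top concentration at or near clinical Cmax (else 10 microM), half-log dilutions; growth expressed as percent test/control.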

[1] = curve of first compound, second compound 0.1 µM
[2] = curve of first compound, second compound 0.316 µM
[3] = curve of first compound, second compound 1 µM
[4] = curve of first compound, second compound 3.16 µM
[5] = curve of first compound, second compound 10 µM
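Also: spheroids exposed to compounds for seven days.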

Work on `CC1COCCN1c1cc(-c2ccnn2C)c2ccnc(-c3ccn[nH]3)c2n1` (stereo unspecified) + CC(CO)NC(=O)c1cc(-c2ccc(Cl)cc2)nn(-c2cnn(C)c2)c1=O yielded an IC50 [1] of 43.1 nM, an IC50 [2] of 34.1 nM and an IC50 [3] of 35.1 nM. It also gave an IC50 [4] of 29.1 nM, an IC50 [5] of 19.6 nM and a viability, T/C (second compound 0.1 µM, first compound 0.00316 µM) of 112%. For the same compound, the viability, T/C (second compound 0.1 µM, first compound 0.01 µM) was 87.6%, the viability, T/C (second compound 0.1 µM, first compound 0.0316 µM) was 67.8% and the viability, T/C (second compound 0.1 µM, first compound 0.1 µM) was 10.4%. The viability, T/C (second compound 0.1 µM, first compound 0.316 µM) was 3.86%, the viability, T/C (second compound 0.1 µM, first compound 1 µM) was 2.47% and the viability, T/C (second compound 0.316 µM, first compound 0.00316 µM) was 96.6%. It also gave a viability, T/C (second compound 0.316 µM, first compound 0.01 µM) of 84.4%, a viability, T/C (second compound 0.316 µM, first compound 0.0316 µM) of 54.2% and a viability, T/C (second compound 0.316 µM, first compound 0.1 µM) of 10.6%. It also gave a viability, T/C (second compound 0.316 µM, first compound 0.316 µM) of 3.26%, a viability, T/C (second compound 0.316 µM, first compound 1 µM) of 2.5% and a viability, T/C (second compound 1 µM, first compound 0.00316 µM) of 93.4%. For the same compound, the viability, T/C (second compound 1 µM, first compound 0.01 µM) was 91.7%, the viability, T/C (second compound 1 µM, first compound 0.0316 µM) was 53.4% and the viability, T/C (second compound 1 µM, first compound 0.1 µM) was 10.7%. It also gave a viability, T/C (second compound 1 µM, first compound 0.316 µM) of 2.7%, a viability, T/C (second compound 1 µM, first compound 1 µM) of 2.39% and a viability, T/C (second compound 3.16 µM, first compound 0.00316 µM) of 91.2%. It also gave a viability, T/C (second compound 3.16 µM, first compound 0.01 µM) of 87.7%, a viability, T/C (second compound 3.16 µM, first compound 0.0316 µM) of 47% and a viability, T/C (second compound 3.16 µM, first compound 0.1 µM) of 6.94%. The viability, T/C (second compound 3.16 µM, first compound 0.316 µM) was 2.32%, the viability, T/C (second compound 3.16 µM, first compound 1 µM) was 2.05% and the viability, T/C (second compound 10 µM, first compound 0.00316 µM) was 90.5%. For the same compound, the viability, T/C (second compound 10 µM, first compound 0.01 µM) was 84.2%, the viability, T/C (second compound 10 µM, first compound 0.0316 µM) was 25.7% and the viability, T/C (second compound 10 µM, first compound 0.1 µM) was 4.34%. For the same compound, the viability, T/C (second compound 10 µM, first compound 0.316 µM) was 2.45% and the viability, T/C (second compound 10 µM, first compound 1 µM) was 2.06%.
In the case of `NS(=O)(=O)OCC1CC(n2ccc3c(NC4CCc5ccccc54)ncnc32)CC1O` (stereo unspecified), the viability, T/C (compound 0.0316 µM) is reported as 87% and 90.8% and 96.4%, the viability, T/C (compound 0.1 µM) is reported as 45.5% and 46.1% and 46.9% and the viability, T/C (compound 0.316 µM) is reported as 13.6% and 12.9% and 16%. For the same compound, the viability, T/C (compound 1 µM) was 6.2% and 6.25% and 7.3%, the viability, T/C (compound 3.16 µM) was 5.6% and 5% and 5.76% and the viability, T/C (compound 10 µM) was 4.67% and 3.65% and 5.16%. The IC50 (curve of compound) was 88.4 nM and 90.3 nM and 93 nM.
For `CCN(c1cc(-c2ccc(CN3CCOCC3)cc2)cc(C(=O)NCc2c(C)cc(C)[nH]c2=O)c1C)C1CCOCC1` + CC(CO)NC(=O)c1cc(-c2ccc(Cl)cc2)nn(-c2cnn(C)c2)c1=O, the IC50 [1] was > 3000 nM, the IC50 [2] was > 3000 nM and the IC50 [3] was > 3000 nM. The IC50 [4] was > 3000 nM, the IC50 [5] was > 3000 nM and the viability, T/C (second compound 0.1 µM, first compound 0.00949 µM) was 105%. It also gave a viability, T/C (second compound 0.1 µM, first compound 0.03 µM) of 96.8%, a viability, T/C (second compound 0.1 µM, first compound 0.0949 µM) of 83.3% and a viability, T/C (second compound 0.1 µM, first compound 0.3 µM) of 79.6%. For the same compound, the viability, T/C (second compound 0.1 µM, first compound 0.949 µM) was 74.9%, the viability, T/C (second compound 0.1 µM, first compound 3 µM) was 84.1% and the viability, T/C (second compound 0.316 µM, first compound 0.00949 µM) was 106%. The viability, T/C (second compound 0.316 µM, first compound 0.03 µM) was 102%, the viability, T/C (second compound 0.316 µM, first compound 0.0949 µM) was 93% and the viability, T/C (second compound 0.316 µM, first compound 0.3 µM) was 78.9%. The viability, T/C (second compound 0.316 µM, first compound 0.949 µM) was 70.5%, the viability, T/C (second compound 0.316 µM, first compound 3 µM) was 69.1% and the viability, T/C (second compound 1 µM, first compound 0.00949 µM) was 88.8%. It also gave a viability, T/C (second compound 1 µM, first compound 0.03 µM) of 111%, a viability, T/C (second compound 1 µM, first compound 0.0949 µM) of 93.3% and a viability, T/C (second compound 1 µM, first compound 0.3 µM) of 82%. For the same compound, the viability, T/C (second compound 1 µM, first compound 0.949 µM) was 80.3%, the viability, T/C (second compound 1 µM, first compound 3 µM) was 80.9% and the viability, T/C (second compound 3.16 µM, first compound 0.00949 µM) was 88.3%. It also gave a viability, T/C (second compound 3.16 µM, first compound 0.03 µM) of 90.3%, a viability, T/C (second compound 3.16 µM, first compound 0.0949 µM) of 82.9% and a viability, T/C (second compound 3.16 µM, first compound 0.3 µM) of 86.7%. It also gave a viability, T/C (second compound 3.16 µM, first compound 0.949 µM) of 71.4%, a viability, T/C (second compound 3.16 µM, first compound 3 µM) of 78.2% and a viability, T/C (second compound 10 µM, first compound 0.00949 µM) of 94.4%. For the same compound, the viability, T/C (second compound 10 µM, first compound 0.03 µM) was 97.5%, the viability, T/C (second compound 10 µM, first compound 0.0949 µM) was 88% and the viability, T/C (second compound 10 µM, first compound 0.3 µM) was 86.4%. It also gave a viability, T/C (second compound 10 µM, first compound 0.949 µM) of 68.5% and a viability, T/C (second compound 10 µM, first compound 3 µM) of 71.7%.
`CC(CO)NC(=O)c1cc(-c2ccc(Cl)cc2)nn(-c2cnn(C)c2)c1=O` (stereo unspecified) was tested, and the viability, T/C (compound 0.316 µM) was 96.5% [middle of 21 runs], the viability, T/C (compound 1 µM) was 98.8% [middle of 21 runs] and the viability, T/C (compound 10 µM) was 93.9% [middle of 19 runs]. The IC50 (compound alone, run of 08/08/2022) was > 10000 nM.
